Data as given in patent US11623919B2, “Heterocyclic P2X7 antagonists” (AXXAM S.P.A., priority 2017, dated 2023).

What was measured:
Assay in all cases: Screen Quest Fluo-8 No Wash Calcium Assay (Bz-ATP evoked Ca2+ influx, FLIPR)
Format in all cases: cell-based
P2X7 receptor [1] = molecular target: T1, P2X7 receptor (Homo sapiens, UniProt Q99572); set-up: hP2X7 (IC50; nM); other: hP2X7; HEK-293 cells stably transfected with P2X7 receptor, Bz-ATP at EC80, Fluo-8 NW; potency; settings: hP2X7; HEK-293 cells stably transfected with P2X7 receptor, Bz-ATP at EC80, Fluo-8 NW; potency ranges A-D
T1 sequence (Q99572 1-595): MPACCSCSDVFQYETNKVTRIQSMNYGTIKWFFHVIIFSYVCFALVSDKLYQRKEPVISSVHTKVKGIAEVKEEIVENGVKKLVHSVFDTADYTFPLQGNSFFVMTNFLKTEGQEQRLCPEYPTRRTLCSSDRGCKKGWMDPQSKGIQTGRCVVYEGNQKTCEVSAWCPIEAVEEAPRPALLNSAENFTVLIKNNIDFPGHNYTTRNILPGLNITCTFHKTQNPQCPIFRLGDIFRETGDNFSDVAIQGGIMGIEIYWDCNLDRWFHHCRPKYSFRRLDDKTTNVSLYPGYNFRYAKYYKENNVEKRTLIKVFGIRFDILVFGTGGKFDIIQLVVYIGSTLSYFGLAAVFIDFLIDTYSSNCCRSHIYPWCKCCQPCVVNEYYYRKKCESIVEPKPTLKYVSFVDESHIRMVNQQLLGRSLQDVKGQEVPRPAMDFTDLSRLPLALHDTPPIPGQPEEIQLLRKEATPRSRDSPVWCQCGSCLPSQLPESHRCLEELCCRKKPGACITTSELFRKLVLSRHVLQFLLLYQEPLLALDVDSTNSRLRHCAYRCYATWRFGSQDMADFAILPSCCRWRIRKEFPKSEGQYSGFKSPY
Method in brief: (§1)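 HEK-293 cells stably expressing P2X7 were loaded with Fluo-8 NW for 1 h at RT, then given compound, and 5 min later Bz-ATP at EC80. Fluorescence was read by FLIPR in low divalent cation buffer (0.3 mM Ca2+, 0 mM Mg2+). IC50 came from percent inhibition relative to reference antagonist A438079.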

P2X7 receptor [2] = molecular target: T2, P2X7 receptor (Rattus norvegicus, UniProt Q64663); settings: rP2X7; HEK-293 cells stably transfected with P2X7 receptor, Bz-ATP at EC80, Fluo-8 NW; potency ranges A-D
T2 construct: rP2X7 (IC50; nM); other: rP2X7; HEK-293 cells stably transfected with P2X7 receptor, Bz-ATP at EC80, Fluo-8 NW; potency
T2 sequence (Q64663 1-595): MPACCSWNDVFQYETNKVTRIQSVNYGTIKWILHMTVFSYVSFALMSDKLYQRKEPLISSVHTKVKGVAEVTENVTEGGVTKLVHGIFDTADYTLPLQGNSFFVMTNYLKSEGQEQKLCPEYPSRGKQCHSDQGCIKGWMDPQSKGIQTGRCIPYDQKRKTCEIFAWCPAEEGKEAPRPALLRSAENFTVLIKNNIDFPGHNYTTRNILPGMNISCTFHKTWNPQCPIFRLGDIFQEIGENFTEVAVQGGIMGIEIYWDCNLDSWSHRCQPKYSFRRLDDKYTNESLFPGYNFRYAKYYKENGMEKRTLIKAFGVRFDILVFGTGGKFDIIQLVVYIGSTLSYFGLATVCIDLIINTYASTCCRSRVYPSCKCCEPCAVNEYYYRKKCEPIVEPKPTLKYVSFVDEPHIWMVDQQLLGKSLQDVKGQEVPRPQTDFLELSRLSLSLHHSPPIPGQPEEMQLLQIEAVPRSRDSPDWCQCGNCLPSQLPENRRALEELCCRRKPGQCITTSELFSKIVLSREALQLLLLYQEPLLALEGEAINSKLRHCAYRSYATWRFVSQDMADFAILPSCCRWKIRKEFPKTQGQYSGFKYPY
Method in brief: as §1

P2X7 receptor [3] = molecular target: T3, P2X7 receptor (Mus musculus, UniProt Q9Z1M0); settings: mP2X7; HEK-293 cells stably transfected with P2X7 receptor, Bz-ATP at EC80, Fluo-8 NW; potency ranges A-D
T3 construct: mP2X7 (IC50; nM); other: mP2X7; HEK-293 cells stably transfected with P2X7 receptor, Bz-ATP at EC80, Fluo-8 NW; potency
T3 sequence (Q9Z1M0 1-595): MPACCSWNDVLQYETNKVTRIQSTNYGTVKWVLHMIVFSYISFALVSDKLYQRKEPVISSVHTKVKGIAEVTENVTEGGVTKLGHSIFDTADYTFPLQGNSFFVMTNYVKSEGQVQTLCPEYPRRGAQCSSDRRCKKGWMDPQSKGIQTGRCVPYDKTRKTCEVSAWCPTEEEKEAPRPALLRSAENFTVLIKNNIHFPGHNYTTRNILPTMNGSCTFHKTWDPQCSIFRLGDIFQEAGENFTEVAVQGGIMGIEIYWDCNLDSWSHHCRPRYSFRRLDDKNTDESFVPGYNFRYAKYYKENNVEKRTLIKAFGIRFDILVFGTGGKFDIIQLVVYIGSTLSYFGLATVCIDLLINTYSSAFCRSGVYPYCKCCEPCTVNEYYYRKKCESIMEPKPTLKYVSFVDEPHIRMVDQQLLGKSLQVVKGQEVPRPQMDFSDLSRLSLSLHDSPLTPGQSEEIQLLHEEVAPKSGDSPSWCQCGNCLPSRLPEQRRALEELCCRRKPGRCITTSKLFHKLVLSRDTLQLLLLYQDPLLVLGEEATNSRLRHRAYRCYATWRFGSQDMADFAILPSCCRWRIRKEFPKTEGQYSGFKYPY
Method in brief: as §1

Row | IC50 (P2X7 receptor [1]) [nM] | IC50 (P2X7 receptor [2]) [nM] | IC50 (P2X7 receptor [3]) [nM] | Structure (SMILES)
1 | 200 to 1000 | 1000 to 10000 | 1000 to 10000 | O=c1onc(Cc2c(F)cccc2Cl)n1CC1CCC2(CC1)OCCO2 [Example 70, 3-[(2-chloro-6-fluorophenyl)methyl]-4-{1,4-dioxaspiro[4.5]decan-8-ylmethyl}-4,5-dihydro-1,2,4-oxadiazol-5-one]
2 | 1000 to 10000 | 1000 to 10000 | > 10000 | O=c1onc(Cc2c(F)cccc2Cl)n1Cc1ccccc1C(F)(F)F [Example 23, 3-[(2-chloro-6-fluorophenyl)methyl]-4-{[2-(trifluoromethyl)phenyl]methyl}-4,5-dihydro-1,2,4-oxadiazol-5-one]
3 | 1000 to 10000 | 1000 to 10000 | 1000 to 10000 | O=c1onc(Cc2ccc(F)cc2)n1Cc1ccc(F)cc1Cl [Example 51, 4-[(2-chloro-4-fluorophenyl)methyl]-3-[(4-fluorophenyl)methyl]-4,5-dihydro-1,2,4-oxadiazol-5-one]
4 | 200 to 1000 | < 200 | 200 to 1000 | O=c1onc(CN2CCCCC2)n1Cc1c(F)cccc1Cl [Example 241, 4-[(2-chloro-6-fluorophenyl)methyl]-3-[(piperidin-1-yl)methyl]-1,2,4-oxadiazol-5(4H)-one]
5 | 200 to 1000 | 200 to 1000 | 200 to 1000 | O=c1onc(CCc2c(F)cccc2Cl)n1CC1CCC(F)(F)CC1 [Example 147, 3-[2-(2-chloro-6-fluorophenyl)ethyl]-4-[(4,4-difluorocyclohexyl)methyl]-1,2,4-oxadiazol-5(4H)-one]
6 | > 10000 | > 10000 | > 10000 | O=c1onc(Cc2c(F)cccc2Cl)n1Cc1nccs1 [Example 34, 3-[(2-chloro-6-fluorophenyl)methyl]-4-(1,3-thiazol-2-ylmethyl)-4,5-dihydro-1,2,4-oxadiazol-5-one]
7 | 1000 to 10000 | 1000 to 10000 | 1000 to 10000 | O=c1onc(C(O)c2ccc(F)cc2F)n1Cc1c(F)cccc1Cl (stereo not drawn) [Example 137, 4-[(2-chloro-6-fluorophenyl)methyl]-3-[(2,4-dffluorophenyl)(hydroxy)methyl]-4,5-dihydro-1,2,4-oxadiazol-5-one]
8 | > 10000 | 1000 to 10000 | > 10000 | Cc1cc(Cn2c(CC3CCC(F)(F)CC3)noc2=O)no1 [Example 169, 3-[(4,4-difluorocyclohexyl)methyl]-4-[(5-methyl-1,2-oxazol-3-yl)methyl]-4,5-dihydro-1,2,4-oxadiazol-5-one]
9 | < 200 | < 200 | 200 to 1000 | O=c1onc(Cc2ccccc2Cl)n1CC1CCC(F)(F)CC1 [Example 158, 3-[(2-chlorophenyl)methyl]-4-[(4,4-difluorocyclohexyl)methyl]-4,5-dihydro-1,2,4-oxadiazol-5-one]
10 | < 200 | < 200 | 200 to 1000 | O=c1onc(Cc2cccc(Cl)c2Cl)n1CC1CCC(F)(F)CC1 [Example 156, 3-[(2,3-dichlorophenyl)methyl]-4-[(4,4-difluorocyclohexyl)methyl]-4,5-dihydro-1,2,4-oxadiazol-5-one]
11 | > 10000 | > 10000 | > 10000 | Cc1ncccc1Cc1noc(=O)n1Cc1c(F)cccc1Cl [Example 217, 4-[(2-chloro-6-fluorophenyl)methyl]-3-[(2-methylpyridin-3-yl)methyl]-4,5-dihydro-1,2,4-oxadiazol-5-one]
12 | 1000 to 10000 | 1000 to 10000 | 1000 to 10000 | O=c1onc(CC2CCCCC2)n1Cc1ccc(F)cc1 [Example 131, 3-(cyclohexylmethyl)-4-[(4-fluorophenyl)methyl]-4,5-dihydro-1,2,4-oxadiazol-5-one]
13 | > 10000 | > 10000 | > 10000 | COc1ccc(Cn2c(Cc3ccc(F)cc3)noc2=O)cc1 [Example 3, 3-[(4-fluorophenyl)methyl]-4-[(4-methoxyphenyl)methyl]-4,5-dihydro-1,2,4-oxadiazol-5-one]
14 | > 10000 | > 10000 | > 10000 | O=c1onc(Cc2c(F)cccc2Cl)n1Cc1ncccn1 [Example 39, 3-[(2-chloro-6-fluorophenyl)methyl]-4-(pyrimidin-2-ylmethyl)-4,5-dihydro-1,2,4-oxadiazol-5-one]
15 | 1000 to 10000 | > 10000 | > 10000 | Cc1noc(C)c1Cc1noc(=O)n1Cc1c(F)cccc1Cl [Example 209, 4-[(2-chloro-6-fluorophenyl)methyl]-3-[(dimethyl-1,2-oxazol-4-yl)methyl]-4,5-dihydro-1,2,4-oxadiazol-5-one]
16 | > 10000 | > 10000 | > 10000 | CC#CCn1c(Cc2c(F)cccc2Cl)noc1=O [Example 95, 4-(but-2-yn-1-yl)-3-[(2-chloro-6-fluorophenyl)methyl]-4,5-dihydro-1,2,4-oxadiazol-5-one]
